Test results taken from patent US20190150438A1, “CONFIGURATIONAL STEREOISOMER OF DIFETHIALONE, COMPOSITION AND RODENTICIDE BAIT COMPRISING SAME, AND METHOD FOR CONTROLLING TARGET RODENT PESTS” (priority 2015, published 2019).

Assay: Hepatic content in dead rats by high-pressure liquid chromatography on a chiral column
Type: in vivo, rat
Method: About 0.525 g (±0.025 g) of rat liver is weighed out accurately and placed in a 50 mL polypropylene tube. 10 mL of acetone are added and the suspension is homogenized using an Ultra-Turrax® homogenizer/disperser for a time of about 30 seconds. The homogenizer/disperser shaft is rinsed with hot water and then twice with 20 mL of acetone in a polypropylene tube. The homogenate is centrifuged for 5 minutes at a centrifugation speed of 3000 rpm (revolutions per minute). The supernatant is collected and transferred into a test tube. The sample is subjected to evaporation under a stream of nitrogen (N2) at a temperature of 40° C. so as to form a dry extract.
1 mL of acetonitrile is added to the tube containing the dry extract so as to dissolve it. […]
The solution containing difethialone is analysed by high-pressure liquid chromatography on a LUX® Cellulose-3 chiral column (Phenomenex, Le Pecq, France) (150×2 mm, particle size of 3 μm) as described in point A2) above.
The measured values, expressed as micrograms of dextrorotatory enantiomer of said hetero-stereoisomer (“DFN-Hetero-dextro”) per gram of liver, are given in table 2 below.
The hepatic content of the dextrorotatory enantiomer of said hetero-stereoisomer of difethialone in each of the rats which die between D5 and D8 is measured by high-pressure liquid chromatography analysis on a chiral column. […]

O=c1sc2ccccc2c(O)c1C1CC(c2ccc(-c3ccc(Br)cc3)cc2)Cc2ccccc21 (centres unmarked) [Total difethialone, 3-(4′-bromobiphenyl-4-yl)-1-(4-hydroxythiocoumarin-3-yl)-1,2,3,4-tetrahydronaphthalene]
Hepatic content, mean (liver of rats which die between D5 and D8 after 10.6 ppm bait): 15.113 µg/g
Hepatic content, mean (liver of rats which die between D9 and D13 after 3.7 ppm bait): 5.372 µg/g
